# According to the supplement of paper PMC13380429:
# ± gives the standard deviation of the averaged measurements.
# Experiments:
# Conditions in all cases: 72 h
# Caco-2 [1] = assay: drug sensitivity score (DSS) for viability; higher = more toxic; extreme values may be limits of the assay
# U2OS [2] = assay: as above
# Calu-3 [3] = assay: as above
# Vero E6 [4] = assay: as above
# HepG2 [5] = assay: as above
# Caco-2 [6] = assay: relative viability EC50 (midpoint between 100% and the lowest measured viability); higher = less toxic
# U2OS [7] = assay: as above
# Calu-3 [8] = assay: as above
# Vero E6 [9] = assay: as above
# HepG2 [10] = assay: as above
# Caco-2 [11] = assay: cell viability relative to DMSO; higher = less toxic
# U2OS [12] = assay: as above
# Calu-3 [13] = assay: as above
# Vero E6 [14] = assay: as above
# HepG2 [15] = assay: as above
Compound,drug sensitivity score (Caco-2 [1]),drug sensitivity score (U2OS [2]),drug sensitivity score (Calu-3 [3]),drug sensitivity score (Vero E6 [4]),drug sensitivity score (HepG2 [5]),relative viability EC50 (Caco-2 [6]),relative viability EC50 (U2OS [7]),relative viability EC50 (Calu-3 [8]),relative viability EC50 (Vero E6 [9]),relative viability EC50 (HepG2 [10]),cell viability (Caco-2 [11]; 1 nM),cell viability (Caco-2 [11]; 10 nM),cell viability (Caco-2 [11]; 100 nM),cell viability (Caco-2 [11]; 1000 nM),cell viability (Caco-2 [11]; 10000 nM),cell viability (U2OS [12]; 1 nM),cell viability (U2OS [12]; 10 nM),cell viability (U2OS [12]; 100 nM),cell viability (U2OS [12]; 1000 nM),cell viability (U2OS [12]; 10000 nM),cell viability (Calu-3 [13]; 1 nM),cell viability (Calu-3 [13]; 10 nM),cell viability (Calu-3 [13]; 100 nM),cell viability (Calu-3 [13]; 1000 nM),cell viability (Calu-3 [13]; 10000 nM),cell viability (Vero E6 [14]; 1 nM),cell viability (Vero E6 [14]; 10 nM),cell viability (Vero E6 [14]; 100 nM),cell viability (Vero E6 [14]; 1000 nM),cell viability (Vero E6 [14]; 10000 nM),cell viability (HepG2 [15]; 1 nM),cell viability (HepG2 [15]; 10 nM),cell viability (HepG2 [15]; 100 nM),cell viability (HepG2 [15]; 1000 nM),cell viability (HepG2 [15]; 10000 nM)
N[C@H]1C(O)O[C@H](CO)[C@@H](O)[C@@H]1O (mixture of isomers) [glucosamine],0,0,0,0,0,> 10 µM,> 10 µM,> 10 µM,> 10 µM,> 10 µM,88.8%,91.8%,95%,96.6%,100%,97.6%,99.9%,94.2%,96.4%,95.7%,101%,107%,97.2%,101%,105%,108%,103%,101%,97.7%,105%,112%,106%,109%,100%,112%
Cc1onc(O)c1C[C@@H](N)C(=O)O (racemic) [AMPA-(RS)],0,0,0,0,0,> 10 µM,> 10 µM,> 10 µM,> 10 µM,> 10 µM,99.7 ± 0.42%,89.15 ± 0.071%,98.2 ± 3.9%,93.2 ± 3.2%,93 ± 3.8%,97.1 ± 1.8%,95.6 ± 1.3%,98.2 ± 2.3%,98.5 ± 3.6%,102 ± 2.5%,95.7 ± 6.4%,98.5 ± 1.5%,95.8 ± 5%,99.1 ± 3.5%,106 ± 12%,99 ± 3.2%,98.9 ± 1.1%,93.8 ± 2.1%,97.2 ± 1.3%,104 ± 0.78%,92.3 ± 9.6%,102 ± 13%,96.5 ± 5.2%,101 ± 5.9%,108 ± 5.2%
O=C(O)CCC/C=C\C[C@@H]1[C@@H](/C=C/[C@@H](O)COc2cccc(Cl)c2)[C@H](O)C[C@@H]1O (racemic) [cloprostenol-(+/-)],0,0,0,0,0,> 10 µM,> 10 µM,> 10 µM,> 10 µM,> 10 µM,100%,104%,96.1%,97.7%,92.3%,103%,106%,99.9%,102%,97.6%,110%,108%,106%,95.5%,100%,99.1%,103%,105%,102%,102%,98.2%,106%,104%,103%,104%
N#C/C(=C\c1ccc(O)c(O)c1)C(=O)OCCc1cccs1 [2-TEDC],0,0,0,0,1,> 10 µM,> 10 µM,> 10 µM,> 10 µM,> 10 µM,96.3%,102%,91.8%,101%,99.3%,98.6%,101%,96.1%,99.2%,95.2%,91.1%,94.2%,96.1%,99.4%,93.9%,98.5%,97.9%,96.7%,93.6%,102%,93.8%,96.1%,104%,86%,91.3%
